Results: patent US4182887A, “3-Amino-4-phenyl-1H-pyrazolo[3,4-b]pyridines and salts thereof” (Boehringer Ingelheim GmbH, priority 1976, dated 1980)
pIC50: −log10 of the molar value.

Columns and labels:
[1] = test system: thrombocyte aggregation in platelet-rich plasma; assay: Determination of effect on platelet aggregation by the method of Born and Cross (collagen-induced thrombocyte aggregation); assay type: cell-based; conditions: 10 min, platelet-rich plasma of healthy human donors, 10 min incubation at 37° C., read-out: ED50 (dose leading to a 50% inhibition of aggregation compared with the control group)
Experimental: 1. Determination of effect on platelet aggregation by the method of Born and Cross, J. Physiol. 170, 397 (1964):
The thrombocyte aggregation was measured in the platelet-rich plasma of healthy human donors. The course of change of the optical density of the platelet suspension was measured and recorded photometrically after the addition of commercial collagen containing 1 mg of collagen fibrils per ml. From the angle of inclination of the density curve, the rate of aggregation was estimated (Vmax). The optical density (O.D.) was taken as the point on the curve where the most light was transmitted.
As small doses of collagen as possible were chosen, but sufficient to give irreversible aggregation. To provoke maximum aggregation, about 0.01 ml of the collagen solution was added to 1 ml of platelet-rich plasma.
The test compounds were incubated at 37° C. for 10 minutes with the plasma before aggregation was provoked. The compounds were dissolved with a small quantity of hydrochloric acid or dimethyl formamide, and the solution was diluted to the desired final concentration with distilled water.
The dose leading to a 50% inhibition of aggregation compared with the control group (E D50) was determined.

[2] = Acute toxicity in white mice after oral application of a single dose; assay type: in vivo; conditions: mouse, in vivo, observation time 14 days
Experimental: (§1) The acute toxicity of the compounds was determined in white mice (observation time: 14 days) after oral application of a single dose: […]

white mice = assay: as above; assay type: in vivo; conditions: observation time 14 days, at the dose given in the same line
Experimental: as §1

| SMILES | pIC50 [1] | LD50 at 336 h [2] [mg/kg] | animals died (mortality in acute toxicity test) (white mice) |
| --- | --- | --- | --- |
| Nc1n[nH]c2nc(N3CCOCC3)cc(-c3ccccc3)c12 [A, 3-Amino-6-morpholino-4-phenyl-1H-pyrazolo[3,4-b]pyridine] | 6.00 | > 250 | 0 out of 10 |
| Nc1n[nH]c2nc(N3CCSCC3)cc(-c3ccccc3)c12 [B, 3-Amino-4-phenyl-6-thiomorpholino-1H-pyrazolo[3,4-b]pyridine] | 7.40 | > 250 | 0 out of 10 |
| Nc1n[nH]c2nc(N3CCCCC3)cc(-c3ccccc3)c12 [C, 3-Amino-4-phenyl-6-piperidino-1H-pyrazolo[3,4-b]pyridine] | 6.40 | > 250 | 0 out of 10 |
| Nc1n[nH]c2nc(N3CCCCCC3)cc(-c3ccccc3)c12 [Compound E, 3-Amino-6-hexamethyleneimino-4-phenyl-1H-pyrazolo[3,4-b]pyridine] | 7.40 | > 5000 | 3 out of 10 |
| CC1CCCN(c2cc(-c3ccccc3)c3c(N)n[nH]c3n2)C1 (stereo not shown) [D, 3-Amino-6-(3-methyl-piperidino)-4-phenyl-1H-pyrazolo[3,4-b]pyridine] | 6.52 | > 250 | 0 out of 10 |
| CCN(CC)c1cc(-c2ccccc2)c2c(N)n[nH]c2n1 [F, 3-Amino-6-diethylamino-4-phenyl-1H-pyrazolo[3,4-b]pyridine] | 6.52 | > 1500 | 0 out of 10 |
| COc1ccc(-c2cc(N3CCCCC3)nc3[nH]nc(N)c23)cc1 [G, 3-Amino-4-(4'-methoxy-phenyl)-6-piperidino-1H-pyrazolo [3,4-b]pyridine] | 6.00 | > 1500 | 0 out of 10 |
| Nc1n[nH]c2nc(N3CCCCCC3)cc(-c3ccc(F)cc3)c12 [H, 3-Amino-4-(4'-fluoro-phenyl)-6-hexamethyleneimino-1H-pyrazolo[3,4-b]pyridine] | 6.52 | – | – |
| Nc1cc(-c2ccccc2)c2c(N)n[nH]c2n1 [I, 3,6-Diamino-4-phenyl-1H-pyrazolo[3,4-b]pyridine, reference compound] | 4.00 | > 1500 | 0 out of 10 |
